According to patent US20100311678A1, “METHODS AND COMPOSITIONS FOR TREATING CANCER AND MODULATING SIGNAL TRANSDUCTION AND METABOLISM PATHWAYS” (priority 2007, published 2010):
“Also recorded” adds a separate entry of the source.

Experiments:
[1] = tested on: adult rat dissociated dorsal root ganglion (DRG) neurons; experiment: Intracellular delivery of fluorescent doxorubicin into dissociated DRG neurons with the TRPV1 agonist capsaicin (micrographs); type: cell-based; conditions: 2 mM doxorubicin/1 mM capsaicin for 5 minutes vs 2 mM doxorubicin alone for 20 minutes; fluorescence micrographs, FIG. 2
Experimental: FIG. 2 is a series of micrographs showing intracellular delivery of doxorubicin into adult rat dissociated dorsal root ganglion (DRG) neurons. The DRG neurons were treated with vehicle control (FIG. 2A), 2 mM doxorubicin (Adriamycin®) for 20 minutes (FIG. 2B), or 2 mM doxorubicin (Adriamycin®)/1 mM capsaicin for 5 minutes (FIG. 2C). […] The size and number of the fluorescently labeled neurons are similar to those of TRPV1 expressing neurons.
The selective administration of compounds or agents that are cytotoxic to cancer cells is accomplished by the co-administration of capsaicin, an agonist of the large-pore cation channel receptor TRPV1, along with doxorubicin (Adriamycin®).

[2] = tested on: adult rat dissociated dorsal root ganglion (DRG) neurons; experiment: Intracellular delivery of fluorescent doxorubicin into dissociated DRG neurons with the TRPM8 agonist menthol (micrographs); type: cell-based; conditions: 2 mM doxorubicin/100 mM L-menthol for 10 minutes vs 2 mM doxorubicin alone for 20 minutes; fluorescence micrographs, FIG. 1
Experimental: FIG. 1 is a series of micrographs showing intracellular delivery of doxorubicin a fluorescent antiproliferative agent into adult rat dissociated dorsal root ganglion (DRG) neurons. The DRG neurons were treated with vehicle control (FIG. 1A), 2 mM doxorubicin (Adriamycin®) for 20 minutes (FIG. 1B), or 2 mM doxorubicin/100 mM L-menthol for 10 minutes (FIG. 1C). […] The size and number of the fluorescently labeled neurons are similar to those of TRPM8 expressing neurons.
The selective administration of compounds or agents that are cytotoxic to cancer cells is accomplished by the co-administration of menthol, an agonist of the large-pore cation channel receptor TRPM8, along with the antiproliferative agent doxorubicin (Adriamycin®). […] Once doxorubicin is within a cell it enters the nucleus where it binds to DNA.

## COc1cccc2c1C(=O)c1c(O)c3c(c(O)c1C2=O)C[C@@](O)(C(=O)CO)C[C@@H]3O[C@H]1C[C@H](N)[C@H](O)[C@H](C)O1 [doxorubicin]
[1]
  intracellular delivery/accumulation of doxorubicin: only entered into cells in the presence of capsaicin; also recorded: intracellular accumulation of the doxorubicin only into those DRG neurons that express TRPV1
[2]
  intracellular delivery/accumulation of doxorubicin: only entered into cells in the presence of menthol; also recorded: intracellular accumulation of the doxorubicin only into those DRG neurons that express TRPM8
